Assay results from the supplement of paper PMC10949913.

How the values were obtained:
Conditions in all cases: 48 h
CU-ACC1 [1] = assay: area under concentration-response curve (viability) (AUC (a.u.)); higher = less active
Summary of the method: (§1)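 After 48 h of treatment with 23 nL of each library compound at 11 concentrations, three adrenocortical carcinoma cell lines in 1,536-well plates (500–1,000 cells/well, 5 µL medium) were given CellTiter-Glo for 15 minutes at room temperature. Luminescence was then read and normalised per plate to vehicle and empty-well controls. AC50 and area under the curve were drawn from fitted concentration-response curves of inhibitory or non-responding classes only.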

NCI-H295R [2] = assay: as above
Summary of the method: as §1

CU-ACC1 [3] = assay: AC50 viability; higher = less potent
Summary of the method: as §1

NCI-H295R [4] = assay: AC50 viability; higher = less potent
Summary of the method: as §1

| SMILES | area under concentration-response curve (CU-ACC1 [1]) | area under concentration-response curve (NCI-H295R [2]) | AC50 viability (CU-ACC1 [3]) | AC50 viability (NCI-H295R [4]) |
| --- | --- | --- | --- | --- |
| CCN1CCN(Cc2ccc(NC(=O)c3ccc(C)c(/C=C/c4cnc5[nH]ccc5c4OC)c3)cc2C(F)(F)F)CC1 | 461 | 471 | 9.34 µM | 7.42 µM |
| CN(C)CCCNC(=O)c1ccc(-c2cc(O)c3ncccc3c2)cc1 | 376 | 360 | 16.6 µM | 0.332 µM |
| CN(C)CCCN1c2ccccc2CCc2ccc(Cl)cc21 | 473 | 535 | 18.6 µM | 23.5 µM |
| CCOC(CN1C(=O)[C@](CC(=O)Nc2ccc(C)cc2)(NC(=O)Nc2ccc(C)cc2)c2ccccc21)OCC | 432 | 537 | 37.2 µM | 29.5 µM |
| COC1=CC=C2[N](CCCN(C)C)C=C(C2=C1)C/3=C(/C(=O)NC3=O)C4=C[NH]C5=C4C=CC=C5 | 514 | 547 | 26.3 µM | 26.3 µM |
| O=C(NCCCNc1nc(Nc2ccc(N3CCOCC3)cc2)ncc1C1CC1)C1CCC1 | 379 | 460 | 2.63 µM | 14.8 µM |
| NC(=O)N1CCC(CC(=O)N2CCC([C@H]3c4ncc(Br)cc4CCc4cc(Cl)cc(Br)c43)CC2)CC1 | 440 | 440 | 37.2 µM | 23.5 µM |
| CC(C)n1cnc2c(NCCCCCCNC(=O)OC(C)(C)C)nc(NCCO)nc21 | 414 | 481 | 16.6 µM | 23.5 µM |
| CCCC\1=C(/CNC(=O)C2=CC(=CC3=C2C=N[N]3C(C)C)C4=CC(=NC=C4)N5CCN(C)CC5)C(=O)NC(=C1)\C | 478 | 501 | 18.6 µM | 18.6 µM |
| FC(F)(F)C1=CC=C2C(SCCCCCO\C3=C\O\C(CN4CCOCC4)=C/C3=O)=CC=NC2=C1 | 295 | 324 | 8.33 µM | 18.6 µM |
| CC[C@H](C)[N]1C=C(C)C2=C1C=C(C=C2C(=O)NC\C3=C(C)\C=C(\C)NC3=O)C4=CC=C(N=C4)N5CCNCC5 | 449 | 493 | 18.6 µM | 23.5 µM |
| CCC(CC)C(c1ccc(Nc2nc3ccccc3s2)cc1)n1cncn1 (configuration not stated) | 451 | 474 | 29.5 µM | 20.9 µM |
| CCN1C(=O)N\2CC3=CC(=CC(=C3[C@@H](C)\C=C2C14CCN(CC4)CC5=CC(=CC(=C5)C)C)OC)OC | 426 | 514 | 37.2 µM | 18.6 µM |
| Clc1cc(Cl)cc(CNc2ncncc2-c2ccc3c(c2)OCO3)c1 | 412 | 430 | 14.8 µM | 13.2 µM |
| O=C(C(c1ccccc1)c1ccccc1)N1CCN(CC(O)COc2cccc3ncccc23)CC1 (configuration not stated) | 467 | 524 | 23.5 µM | 16.6 µM |
| CN1CCN(CCCN2c3ccccc3Sc3ccc(C(F)(F)F)cc32)CC1 | 441 | 480 | 29.5 µM | 18.6 µM |
| Nc1ccc(F)cc1NC(=O)c1ccc(CNC(=O)/C=C/c2cccnc2)cc1 | 341 | 433 | 9.34 µM | 8.33 µM |

| SMILES | area under concentration-response curve (CU-ACC1 [1]) | area under concentration-response curve (NCI-H295R [2]) | AC50 viability (CU-ACC1 [3]) | AC50 viability (NCI-H295R [4]) |
| --- | --- | --- | --- | --- |
| O=C1Nc2ccc(Cl)cc2[C@@](C#CC2CC2)(C(F)(F)F)O1 | 471 | 504 | 29.5 µM | 20.9 µM |
| Cc1c(C(=O)NN2CCCCC2)nn(-c2ccc(Cl)cc2Cl)c1-c1ccc(Cl)cc1 | 396 | 433 | 20.9 µM | 18.6 µM |
| CC(=O)C\1=C(/C)C2=CN=C(NC3=CC=C(C=N3)N4CCNCC4)N=C2N(C5CCCC5)C1=O | 461 | 487 | 16.6 µM | 26.3 µM |
| Cc1ccc(F)c(NC(=O)Nc2ccc(-c3cccc4[nH]nc(N)c34)cc2)c1 | 497 | 506 | 18.6 µM | 26.3 µM |
| CC(C)Oc1ccc(C(=O)N[C@H](CNC(=O)CN(C)C)Cc2ccc(-c3cn4cccc([C@H](C)O)c4n3)cc2)cc1Cl | 424 | 427 | 16.6 µM | 13.2 µM |
| CCNc1cc(NC2CCC(O)CC2)nc(Nc2ccc3c(ccn3Cc3ccccc3)c2)n1 (configuration not stated) | 149 | 156 | 0.0235 µM | 1.18 µM |
| COc1cc(C(=O)NC2CCN(C)CC2)ccc1Nc1ncc2c(n1)N(C1CCCC1)CCC(=O)N2C(C)C | 504 | 538 | 26.3 µM | 23.5 µM |
| C[S+](=O)([O-])CCNCc1ccc(-c2ccc3ncnc(Nc4ccc(OCc5cccc(F)c5)c(Cl)c4)c3c2)o1 | 420 | 456 | 23.5 µM | 20.9 µM |
| Cl.Cl.Cl.O[C@@H](COc1cccc2ncccc12)CN1CCN([C@@H]2c3ccccc3[C@@H]3[C@H](c4ccccc42)C3(F)F)CC1 | 515 | 490 | 23.5 µM | 16.6 µM |
| NCCCN([C@H](CC#C)C/1=N/C2=C(C=CC(=C2)Cl)C(=O)N1NC3=CC=CC=C3)C(=O)C4=CC=CC(=C4F)Cl | 429 | 484 | 33.2 µM | 20.9 µM |
| C[C@@H](NCCCc1cccc(C(F)(F)F)c1)c1cccc2ccccc12 | 467 | 501 | 10.5 µM | 13.2 µM |
| CC(C)C[C@H](NC(=O)c1cc2ccccc2s1)C(=O)N1CCN(C(=O)[C@H](CO)N[S+](=O)([O-])c2ccc(Cl)cc2Cl)CC1 | 445 | 494 | 16.6 µM | 18.6 µM |
| CCN1CCC(n2cc(CNc3cc(Cl)c4ncc(C#N)c(Nc5ccc(F)c(Cl)c5)c4c3)nn2)CC1 | 456 | 494 | 16.6 µM | 23.5 µM |
| C[S+](=O)([O-])c1ccc([C@@H](CC2CCCC2)C(=O)Nc2nccs2)cc1 | 379 | 393 | 18.6 µM | 16.6 µM |
| C/C(=C\C(=O)Nc1ccccc1C(=O)O)c1ccc2ccccc2c1 | 451 | 449 | 7.42 µM | 18.6 µM |
| COC1=CC2=C(C=C1OC)[C@H]3[C@@H](CO2)OC4=C(C=CC5=C4\C=C/C(C)(C)O5)C3=O | 342 | 510 | 0.372 µM | 16.6 µM |
